Consider 46 compounds from ChEMBL document CHEMBL1201862, “PubChem BioAssay data set” (2004).

Structures are written as SMILES. “And” between values parts separate entries of the source, which are not always exact repeats. Equal entries are not always repeated.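 96-well plates; 48 h exposure; 5 concentrations. Endpoints by linear interpolation between flanking doses. Not reached: highest tested concentration assigned. At the GI50, growth is halved.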 The source made the active and inactive calls. No stated cut-off is given here; in the data, active = GI50 up to about 1.1 µM and inactive = higher. Residues, ends and D or L forms follow the SMILES beside them. *: point of attachment. Boc = CC(C)(C)OC(=O)*

One assay relates to T47D. Description: growth of human tumour cells (NCI), 48 h.
The next assay has as its system BT-549. As to the kind of experiment: growth of human tumour cells (NCI), 48 h.

`N=C/N=C/C(=S)O[C@@H]1C(=O)N2CCC[C@@]23CCCC[C@@H]13`: the GI50 with T47D was > 12.5 µM (inactive).

With `[N-]=[N+]=Nc1cc(=O)[nH]nc1-c1ccccc1`, the GI50 in the assay with BT-549 and with T47D was > 100 µM (inactive) in each case. Consider `COc1ccc(N2C(=O)C3c4[nH]c5cccc(Cl)c5c4C4CCC(C(C)(C)C)CC4C3C2=O)cc1` (configuration not stated), for which the GI50 in the assay with BT-549 and with T47D was > 100 µM (inactive) throughout.

Consider `NS(=O)(=O)c1ccc2c(c1)OCCOCCOCCOCCO2`, for which the GI50 in the assay on BT-549 and with T47D was > 100 µM (inactive) each time.

With `Cc1nc(Nc2nc3ccccc3[nH]2)nc(Cl)c1CCCl`, the GI50 in the assay on BT-549 and in the assay on T47D was > 100 µM (inactive) throughout. As to `CC(=O)c1cc2c(s1)C(=O)c1ccsc1C2=O`, the GI50 in the assay on BT-549 is 0.182 µM (active); in the assay on T47D it was 1.31 µM (inactive).

As to `CSC12c3cc(C)n(-c4ccc(I)cc4)c3CC(C)(C)CN1C(=O)C2Oc1ccccc1` (configuration not stated), the values for the GI50 in the assay with BT-549 and with T47D were > 100 µM (inactive) and 5.97 µM (inactive), respectively. As to `CC(C)(C)OC(=O)N1CCc2[nH][nH]c(=O)c2C1`, in the assay on BT-549, the GI50 is > 100 µM (inactive).

For `CC[P+]1(c2ccccc2)[C@@H](C)CC[C@@H]1C`, the GI50 in the assay on BT-549 and in the assay on T47D was > 100 µM (inactive) each time. With `O=C1CSC(c2ccccc2[N+](=O)[O-])N1c1ccc(-c2ccc(-n3c(-c4ccccc4)nc4ccccc4c3=O)cc2)cc1` (configuration not stated), the GI50 was > 100 µM (inactive) in the assay on BT-549 and 29.1 µM (inactive) with T47D. On the same counts, the results for `Cc1ccc(C2=C(Cl)C(=O)C(c3ccc(C)cc3)=C(Cl)C2=O)cc1` are > 100 µM (inactive) and > 100 µM (inactive). On the same counts, the results for `COC(=O)[C@@H]1N2C(=S)N(c3ccccc3)C(=O)[C@H]2SC1(C)C` are > 100 µM (inactive) and > 100 µM (inactive). Turning to `CC(C)(C)OC(=O)NC(Cc1ccc(O)cc1)C(=O)NC(CCCCN)C(=O)O` (stereo not drawn) (Boc-Tyr-Lys-OH; configuration not given here), the figures for the GI50 in the assay on BT-549 and with T47D were 20 µM (inactive) and 15.3 µM (inactive), respectively. Turning to `C[C@@H](c1ccccc1)N1CN(C(=O)OCc2ccccc2)C(CO)C1=O` (some centres not stated), the GI50 in the assay on BT-549 and with T47D was > 100 µM (inactive) throughout.

For `CO[C@@H]1C[C@H](OC(N)=O)[C@@H]2C=C[C@@H]3/C=C(C)/C=C/[C@@H](C)[C@H]([C@H](C)[C@H](O)[C@@H](C)NC(C)=O)OC(=O)/C=C/C=C(C)\C=C\[C@]3(C)[C@@H]2C1`, the GI50 is 2.16 µM (inactive) in the assay with BT-549 and < 0.01 µM (active) in the assay with T47D. Regarding `COC1OC(C(=O)CP(=O)(OC)OC)C(OCc2ccccc2)C(OCc2ccccc2)C1OCc1ccccc1` (configuration not stated), the GI50 with BT-549 is 17.9 µM (inactive) and 19.5 µM (inactive); in the assay with T47D, 18 µM (inactive) and 15.5 µM (inactive). On to `O=c1c(-c2c(-c3ccccc3)oc3ccc(Cl)cc3c2=O)c(-c2ccccc2)oc2ccc(Cl)cc12`, for which the GI50 in the assay on T47D was > 100 µM (inactive). Still for that read-out and setting: the figure for `Cc1ccc(S(=O)(=O)N2C[C@](O)(c3ccccc3)[C@H]2C)cc1` is 47.9 µM (inactive); for `Cc1cn(C2CC(COCc3ccccc3)N(CCO[Si](C)(C)C(C)(C)C)O2)c(=O)[nH]c1=O` (configuration not stated) it is 13.5 µM (inactive).

Turning to `CC1=CC(=O)N(n2c(-c3ccccc3)n[nH]c2=O)C1=O`, the GI50 in the assay with BT-549 and in the assay with T47D was > 100 µM (inactive) throughout. For `COC(=O)[C@]1(C)CC[C@]2(C)CC[C@]3(C)C4[C@H]5Oc6c(cc7c(c6C)CCC6[C@@]7(C)CC[C@@]7(C)C8[C@](C)(CCC[C@@]8(C)C(=O)OC)CC[C@]67C)O[C@H]5c5c(cc6c(c5C)O[C@@]5(C)C7=CC=C8[C@@](C)(CC[C@@]9(C)[C@@H]%10C[C@](C)(C(=O)OC)CC[C@]%10(C)CC[C@]89C)C7=CC(=O)[C@@]5(O)O6)[C@]4(C)CC[C@@]3(C)C2C1` (some centres not stated), the GI50 is 7.03 µM (inactive) in the assay with BT-549 and 2.11 µM (inactive) in the assay with T47D. The corresponding values for `COS(C)(=O)=O` [METHANESULFONIC ACID METHYL ESTER] are > 2 µM (inactive) and > 2 µM (inactive).

As to `O=C1CC(NC(=O)C(F)(F)F)c2c1csc2Br` (configuration not stated), the results for the GI50 in the assay with BT-549 and in the assay with T47D were 44.1 µM (inactive) and 3.4 µM (inactive), respectively.

Regarding `O=C(O)CCC(C(=O)O)N1C(=O)c2ccccc2C1=O` (configuration not stated), the GI50 with BT-549 and with T47D was > 100 µM (inactive) each time. For the compound `COC(=O)c1cccc(C)c1C1CN=NC12Cc1c(ccc(C)c1C)C2=O` (configuration not stated), the GI50 in the assay on T47D was 5.4 µM (inactive). The same measure, in the same setting: then `O=C1O/C(=C\c2ccc(O)c(Br)c2)C(c2ccc(O)cc2)=C1Cl`, with 58.3 µM (inactive). Regarding `S=c1[nH]c2c(Cl)c(Cl)c(Cl)c(Cl)c2[nH]1`, the GI50 with BT-549 was 17.9 µM (inactive); in the assay on T47D, 52.5 µM (inactive). `Cc1nnc([C@@]2(C)CC[C@H]3[C@@H](CCC4=CC(=O)CC[C@@]43C)[C@@H]2CC#N)o1`: the GI50 in the assay with BT-549 was > 100 µM (inactive). With `Nc1c(C(=O)O)nnc2cc(Cl)c(Cl)cc12`, the GI50 with BT-549 is 72.6 µM (inactive); in the assay with T47D, > 100 µM (inactive). For the compound `C=C(C)C1CCC2(C)C1CCC1(C)C2CCC2C3(C)C4OC(OC4=O)C(C)(C)C3CCC21C` (configuration not stated), the values for the GI50 in the assay with BT-549 and in the assay with T47D were > 100 µM (inactive) and 64.6 µM (inactive), respectively. On the same counts, the results for `O=C1CCCC/C1=C(\Br)I` are 17.6 µM (inactive) and 7 µM (inactive). On the same counts, the results for `O=C1C(N2CCN(c3ccccn3)CC2)=C(Cl)C(=O)c2ncccc21` are > 10 µM (inactive) and 2.06 µM (inactive). On the same counts, the results for `CCOC(=O)/C(C#N)=C1\c2c([nH]c(=S)[nH]c2=O)Oc2ccc3ccccc3c21` are > 100 µM (inactive) and 34.7 µM (inactive). With `CN(C)CCCNC(=O)CNC(=O)c1cc(NC(=O)c2cc(NC(=O)c3cc(NC(=O)CCNC(=O)c4cc(NC(=O)c5cc(NC(=O)c6nccn6C)cn5C)cn4C)cn3C)cn2C)cn1C`, in the assay on T47D, the GI50 was > 100 µM (inactive).

As for `CCCC[C@H]1CCN2C[C@@H](O)[C@@H](O)[C@H]2[C@@H]1O`, the GI50 with BT-549 and in the assay on T47D was > 100 µM (inactive) throughout. With `CCOC(=O)c1nc2c(Cl)c3ncccc3cc2[nH]c1=O`, in the assay on BT-549, the GI50 is 21.5 µM (inactive). On the same count and under the same terms, then `COC(=O)c1ccc(COC(=O)N2C=CCC2C(=O)O)cc1` (configuration not stated), with > 100 µM (inactive). On to `Oc1c(C2=NNC(c3cccs3)C2)ccc2ccccc12` (configuration not stated), for which the GI50 in the assay with BT-549 was 32.5 µM (inactive); in the assay with T47D, 4.42 µM (inactive).

For the compound `CC(C)=CCC/C(C)=C\CC/C(C)=C/CO`, in the assay with T47D, the GI50 was 31 µM (inactive). Regarding `COc1ccc(C(C#N)NC23CC4CC(CC(C4)C2)C3)cc1` (configuration not stated), the GI50 in the assay on BT-549 and in the assay on T47D was > 100 µM (inactive) throughout.

Consider `CC(=O)OCC1OC(n2c(=O)[nH]c(=O)c3sccc32)C(Br)C1OC(C)=O` (configuration not stated), for which the GI50 in the assay with BT-549 is > 100 µM (inactive).

Regarding `O=C1/C(=C/c2cccnc2)SC(=S)N1Cc1ccco1`, the GI50 was 27.2 µM (inactive) in the assay with BT-549 and 11.7 µM (inactive) with T47D. On the same counts, the results for `Cn1cc2c3ccccc3nc-2c2ccccc21` [ISOCRYPTOLEPINE] are 3.26 µM (inactive) and 2.07 µM (inactive). `CC1(C)N=C(N)N=C(N)N1c1cccc(OCCOc2ccc([N+](=O)[O-])cc2)c1`: in the assay on BT-549, the GI50 is 12.9 µM (inactive). `CSC1=NN=C(SC)NN1`: the GI50 with BT-549 is 0.151 µM (active); with T47D, 0.142 µM (active). Consider `Cc1cs/c(=N\C(P(=O)(O)O)P(=O)(O)O)n1C`, for which the GI50 in the assay on BT-549 is > 100 µM (inactive).
